Like-named read-outs stand apart in the source and are kept apart here. Marks after values point to notes of the source that are not given here. Where a SMILES comes first, the peptide text is derived from it. Bridges are numbered along the chain shown (N, C = ends). [ ]: non-standard residue; d: D form. Aad = N[C@@H](CCCC(=O)O)C(=O)O; Dab = NCC[C@H](N)C(=O)O; Mpa = O=C(O)CCS
What was measured:
[1] = Therapeutic index (NOAEL/NOEL): paleness, lethargy, ataxia observation in Sprague-Dawley rats (Example 7); type: in vivo; settings: for Paleness (Duration, hrs; SD) / Highest dose with no-observed effect level or paleness (NOEL) / NOAEL/NOEL (therapeutic index) / NOAEL at 24 h / NOAEL: S.C.; for Highest dose with no-observed effect level or paleness (NOEL) / NOAEL/NOEL (therapeutic index) / NOAEL at 24 h / Marked adverse effect (Lowest dose first showed Ataxia) / Mild adverse effect (Lowest dose first showed Lethargy) / NOAEL: rat; for NOAEL at 24 h: male, Sprague-Dawley; for NOAEL at 24 h / Marked adverse effect (Lowest dose first showed Ataxia) / Mild adverse effect (Lowest dose first showed Lethargy) / NOAEL: in vivo, sc; for NOAEL at 24 h / NOAEL: read-out: Highest dose with no-observed adverse effect level without lethargy (NOAEL)
Source text: As used herein, the term “therapeutic index” (TI; also referred to as therapeutic ratio) is a quantitative measure of the relative safety of a drug. […] For the purpose of the present application, lethargy is a lack of energy and/or sleepiness which is visually observed in rats as a lack of mobility, such as a lack of mobility even in the presence of human activity. For the purpose of present specification, peripheral vasoconstriction is visually observed by a paleness of the extremities (e.g., skin of hands, feet, ears, and lips). In rats, peripheral vasoconstriction is determined by a side-by-side comparison of ear paleness in treated subjects (e.g., Sprague Dawley rats, a white rat with easily visualizable changes in redness/paleness) vs. untreated control subjects. The V1a agonist (or partial agonist) with a high therapeutic index will have a better safety profile than that with a low therapeutic index by providing a wider margin of safety for dosing during the treatment of the disease. This NOAEL/NOEL ratio, being a quantitative measure of the relative safety, is a comparison of the amount of a therapeutic agent that causes the therapeutic effect (useful effect, vasoconstriction for the purpose of the present specification) to the amount that causes toxicity. A V1a agonist that causes severe vasoconstriction will affect not only the peripheral vessels, with several layer of smooth muscles, but also other vessels present in other organs (e.g., heart, lungs, kidney, brain) and this will result in observed lethargy and eventually ataxia. A partial agonist is less likely to reach such an extreme level of vasoconstriction and is believed to have a higher therapeutic index.
In this study, 8 to 10 weeks male Sprague-Dawley rats (Charles River; Wilmington, MA) under isoflurane anesthesia (n=3 or 6) were intravenously (IV) or subcutaneously (SC) injected or administered with various test articles. Prior to administration of test articles, the injection area was clipped free of fur, to allow for clear visualization of the dose site, and animal weight was measured and recorded. Animals were housed two per cage. […] Lethargy is when the animal eyes cannot fully open and is associated deep breathing and limited of movement even in the presence of human.

V1a receptor = target: T1, V1a receptor (Homo sapiens, UniProt P37288); test: V1a Human Vasopressin GPCR Cell Based Agonist Calcium Flux Assay; settings: for Emax: read-out: V1a Highest agonist effect (% of AVP)
T1 construct: host or cells: CHO cells
Experimental: Peptides of Formula (I) include Mpa-Tyr-Phe-Hgn-Asn-Cys-Pro-Lys(X)a-Gly-NH2 [SEQ ID NO. 24]; where (X)a is a peptide with “a” residues and each residue X is independently selected from Gly, and a D- or L-amino acid version of Ala, Lys, Orn, Glu, and Asp, where “a” is 0-10. V1a Human Vasopressin GPCR Cell Based Agonist Calcium Flux Assay were conducted at Eurofins Cerep SA (France) on a fee for service basis. Human recombinant CHO cells expressing human V1 receptors were distributed in microplates. Intracellular calcium signal was detected by fluorimetry, and the signal was acquired before and after addition of a known agonist concentration. The following agonist concentrations were tested (nM); 0.0128, 0.064, 0.32, 1.6, 8, 40, 200, and 1,000. […] All assays were performed in duplicate. Changes in fluorescence intensity reflected changes in the concentration of free cytosolic calcium. […] The half-maximal effective concentration (EC50) was determined by a non-linear regression analysis of the concentration-response curves generated with mean replicate values using Hill equation curve fitting (Cerep, I'Evescault, France).
V1a Human Vasopressin GPCR Cell Based Agonist Calcium Flux Assay were conducted using human recombinant CHO cells expressing human V1 receptor. Briefly, human recombinant CHO cells expressing human V1 receptor were distributed in microplates at 4.5×10^4 cells/well. The fluorescent probe (Fluo4 Direct, Invitrogen) mixed with probenicid in HBSS buffer (Invitrogen) complemented with 20 mM HEPES (Invitrogen) (pH 7.4) is then added into each well and equilibrated with the cells for 60 min at 37° C. then 15 min at 22° C. Thereafter, the assay plates are positioned in a microplate reader (CellLux, PerkinElmer) which is used for the addition of the test compound, reference agonist or HBSS buffer (basal control), and the measurements of changes in fluorescence intensity which varies proportionally to the free cytosolic Ca^2+ ion concentration. The following agonist concentrations were tested (nM), 0.0128, 0.064, 0.32, 1.6, 8, 40, 200, and 1,000. […] All assays were performed in duplicate. Changes in fluorescence intensity reflected changes in the concentration of free cytosolic calcium. […] Referring to FIG. 3 and Table 4, the half-maximal effective concentration (EC50) was determined by non-linear regression analysis of the concentration-response curves generated with mean replicate values using Hill equation curve fitting (Cerep, I'Evescault, France).

[2] = at the Marked adverse effect dose
[3] = at the Mild adverse effect dose
[4] = Table 3, CHO cells expressing human V1 receptor, read-out: Estimated V1a EC50 (nM), n = 2

T1 sequence (P37288 whole entry): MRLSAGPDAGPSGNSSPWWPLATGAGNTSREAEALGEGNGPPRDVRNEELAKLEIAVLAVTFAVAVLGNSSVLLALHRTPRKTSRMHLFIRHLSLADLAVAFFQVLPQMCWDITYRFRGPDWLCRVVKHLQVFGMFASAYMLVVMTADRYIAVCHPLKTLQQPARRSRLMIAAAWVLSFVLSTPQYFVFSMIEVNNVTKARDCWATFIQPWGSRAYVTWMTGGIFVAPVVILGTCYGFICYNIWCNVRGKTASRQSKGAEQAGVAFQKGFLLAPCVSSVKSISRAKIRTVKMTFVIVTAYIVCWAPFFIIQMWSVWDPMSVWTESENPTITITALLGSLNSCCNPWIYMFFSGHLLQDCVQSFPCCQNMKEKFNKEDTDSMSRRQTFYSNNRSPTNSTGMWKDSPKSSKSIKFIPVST

SMILES	Paleness (Duration, hrs; SD) [1, 2]	Paleness (Duration, hrs; SD) [1, 3]	Paleness (Duration, hrs; SD) ([1]; at the NOAEL dose)	Paleness (Duration, hrs; SD) ([1]; at the NOEL dose)	Highest dose with no-observed effect level or paleness (NOEL) [1]	NOAEL/NOEL (therapeutic index) [1]	NOAEL at 24 h [1]	Marked adverse effect (Lowest dose first showed Ataxia) [1]	Mild adverse effect (Lowest dose first showed Lethargy) [1]	EC50 (V1a receptor; [4])	Emax (V1a receptor; Table 3, n = 2)	EC50 (V1a receptor; FIG. 2 / FIG. 3 legend, n=2, read-out: EC50 for V1a receptor)	EC50 (V1a receptor; Table 3, cells printed in μM, read-out: Estimated V1a EC50, n = 2)	NOAEL [1]
NCC(=O)NCCCC[C@H](NC(=O)[C@@H]1CCCN1C(=O)[C@@H]1CSSCCC(=O)N[C@@H](Cc2ccc(O)cc2)C(=O)N[C@@H](Cc2ccccc2)C(=O)N[C@@H](CCCC(N)=O)C(=O)N[C@@H](CC(N)=O)C(=O)N1)C(=O)NCC(N)=O [SEQ ID NO. 8, Mpa-Tyr-Phe-Hgn-Asn-Cys-Pro-Lys(X)-Gly-NH2; X = Gly]	(>6.12)* hrs	(>6.12)* hrs	(6.20 ± 0.28) hrs	None Observed	1.5 µg/kg	10	0.15 mg/kg	1.5 mg/kg	0.5 mg/kg	25.3 nM	40.3%	–	–	–
NCC(=O)NCC(=O)NCCCC[C@H](NC(=O)[C@@H]1CCCN1C(=O)[C@@H]1CSSCCC(=O)N[C@@H](Cc2ccc(O)cc2)C(=O)N[C@@H](Cc2ccccc2)C(=O)N[C@@H](CCCC(N)=O)C(=O)N[C@@H](CC(N)=O)C(=O)N1)C(=O)NCC(N)=O [SEQ ID NO. 9, Mpa-Tyr-Phe-Hgn-Asn-Cys-Pro-Lys(X)a-Gly-NH2; (X)a = (Gly)2]	(>5.99)* hrs	(>6.04)* hrs	(5.74 ± 0.45) hrs	None Observed	1.5 µg/kg	100	0.15 mg/kg	1.5 mg/kg	0.5 mg/kg	38.2 nM	37%	–	–	–
NCC(=O)NCC(=O)NCC(=O)NCCCC[C@H](NC(=O)[C@@H]1CCCN1C(=O)[C@@H]1CSSCCC(=O)N[C@@H](Cc2ccc(O)cc2)C(=O)N[C@@H](Cc2ccccc2)C(=O)N[C@@H](CCCC(N)=O)C(=O)N[C@@H](CC(N)=O)C(=O)N1)C(=O)NCC(N)=O [SEQ ID NO. 10, Mpa-Tyr-Phe-Hgn-Asn-Cys-Pro-Lys(X)a-Gly-NH2; (X)a = (Gly)3]	(6.4 ± 0.07) hrs	(6.27 ± 0.13) hrs	(5.65 ± 0.4) hrs	None observed	1.5 µg/kg	100	0.15 mg/kg	1.5 mg/kg	0.5 mg/kg	–	32.9%	53.5 nM	–	–
NCC(=O)NCC(=O)NCC(=O)NCC(=O)NCCCC[C@H](NC(=O)[C@@H]1CCCN1C(=O)[C@@H]1CSSCCC(=O)N[C@@H](Cc2ccc(O)cc2)C(=O)N[C@@H](Cc2ccccc2)C(=O)N[C@@H](CCCC(N)=O)C(=O)N[C@@H](CC(N)=O)C(=O)N1)C(=O)NCC(N)=O [SEQ ID NO. 11, Mpa-Tyr-Phe-Hgn-Asn-Cys-Pro-Lys(X)a-Gly-NH2; (X)a = (Gly)4]	(>6.93)* hrs	(>6.85)* hrs	(6.02 ± 0.06) hrs	None Observed	1.5 µg/kg	100	0.15 mg/kg	1.5 mg/kg	0.5 mg/kg	161 nM	33.6%	–	–	–
NCC(=O)NCC(=O)NCC(=O)NCC(=O)NCC(=O)NCCCC[C@H](NC(=O)[C@@H]1CCCN1C(=O)[C@@H]1CSSCCC(=O)N[C@@H](Cc2ccc(O)cc2)C(=O)N[C@@H](Cc2ccccc2)C(=O)N[C@@H](CCCC(N)=O)C(=O)N[C@@H](CC(N)=O)C(=O)N1)C(=O)NCC(N)=O [SEQ ID NO. 12, Mpa-Tyr-Phe-Hgn-Asn-Cys-Pro-Lys(X)a-Gly-NH2; (X)a = (Gly)5]	(>6.69)* hrs	(>6.65)* hrs	(5.79 ± 0.08) hrs	None Observed	1.5 µg/kg	100	0.15 mg/kg	1.5 mg/kg	0.5 mg/kg	50.1 nM	29.6%	–	–	–
CC(=O)NCC(=O)NCC(=O)NCC(=O)NCC(=O)NCC(=O)NCC(=O)NCC(=O)NCC(=O)NCC(=O)NCCCC[C@H](NC(=O)[C@@H]1CCCN1C(=O)[C@@H]1CSSCCC(=O)N[C@@H](Cc2ccc(O)cc2)C(=O)N[C@@H](Cc2ccccc2)C(=O)N[C@@H](CCCC(N)=O)C(=O)N[C@@H](CC(N)=O)C(=O)N1)C(=O)NCC(N)=O [SEQ ID NO. 26, Mpa-Tyr-Phe-Hgn-Asn-Cys-Pro-Lys(X)a-Gly-NH2; (X)a = (Gly)9-Ac]	–	–	–	–	–	–	–	–	–	–	40%	–	> 10000 nM	–
NC[C@H](N)C(=O)NCCCC[C@H](NC(=O)[C@@H]1CCCN1C(=O)[C@@H]1CSSCCC(=O)N[C@@H](Cc2ccc(O)cc2)C(=O)N[C@@H](Cc2ccccc2)C(=O)N[C@@H](CCCC(N)=O)C(=O)N[C@@H](CC(N)=O)C(=O)N1)C(=O)NCC(N)=O [SEQ ID NO. 29, Mpa-Tyr-Phe-Hgn-Asn-Cys-Pro-Lys(X)a-Gly-NH2; (X)a = Dap]	–	–	–	–	–	–	–	–	–	–	7.5%	–	–	–
NCCC[C@H](NC(=O)[C@@H]1CCCN1C(=O)[C@@H]1CSSCCC(=O)N[C@@H](Cc2ccc(O)cc2)C(=O)N[C@@H](Cc2ccccc2)C(=O)N[C@@H](CCCC(N)=O)C(=O)N[C@@H](CC(N)=O)C(=O)N1)C(=O)NCC(N)=O [SEQ ID NO. 30, Mpa-Tyr-Phe-Hgn-Asn-Cys-Pro-Orn-Gly-NH2]	–	–	–	–	0.5 µg/kg	–	–	0.044 mg/kg	0.015 mg/kg	–	–	–	–	5 µg/kg
NCC[C@H](NC(=O)[C@@H]1CCCN1C(=O)[C@@H]1CSSCCC(=O)N[C@@H](Cc2ccc(O)cc2)C(=O)N[C@@H](Cc2ccccc2)C(=O)N[C@@H](CCCC(N)=O)C(=O)N[C@@H](CC(N)=O)C(=O)N1)C(=O)NCC(N)=O [SEQ ID NO. 31, Mpa-Tyr-Phe-Hgn-Asn-Cys-Pro-Dab-Gly-NH2] ([Mpa]YF[Aad](NH2)NCP[Dab]G-NH2; disulfide 1-6)	–	–	–	–	0.5 µg/kg	–	–	0.045 mg/kg	0.015 mg/kg	–	–	–	–	5 µg/kg
